Details: Liquid, Pulse-echo method

C=CCCCCCCCCCCCCCC [1-hexadecene]
Details | speed of sound [m/s]
303.15 K, 100 kPa | 1314.4
303.15 K, 2500 kPa | 1327.9
303.15 K, 5000 kPa | 1341.7
303.15 K, 10000 kPa | 1368.2
303.15 K, 15000 kPa | 1393.7
303.15 K, 20000 kPa | 1418.2
303.15 K, 30000 kPa | 1464.6
303.15 K, 40000 kPa | 1508
303.15 K, 60000 kPa | 1587.7
303.15 K, 80000 kPa | 1659.7
303.15 K, 100000 kPa | 1725.7
313.15 K, 100 kPa | 1278.1
313.15 K, 2500 kPa | 1292.1
313.15 K, 5000 kPa | 1306.4
313.15 K, 10000 kPa | 1333.9
313.15 K, 15000 kPa | 1360.2
313.15 K, 20000 kPa | 1385.5
313.15 K, 30000 kPa | 1433.2
313.15 K, 40000 kPa | 1477.8
313.15 K, 60000 kPa | 1559.3
313.15 K, 80000 kPa | 1632.8
313.15 K, 100000 kPa | 1700
323.15 K, 100 kPa | 1242.5
323.15 K, 2500 kPa | 1257.1
323.15 K, 5000 kPa | 1271.9
323.15 K, 10000 kPa | 1300.3
323.15 K, 15000 kPa | 1327.5
323.15 K, 20000 kPa | 1353.6
323.15 K, 30000 kPa | 1402.7
323.15 K, 40000 kPa | 1448.4
323.15 K, 60000 kPa | 1531.8
323.15 K, 80000 kPa | 1606.8
323.15 K, 100000 kPa | 1675.2
333.15 K, 100 kPa | 1207.6
333.15 K, 2500 kPa | 1222.7
333.15 K, 5000 kPa | 1238
333.15 K, 10000 kPa | 1267.5
333.15 K, 15000 kPa | 1295.6
333.15 K, 20000 kPa | 1322.4
333.15 K, 30000 kPa | 1372.9
333.15 K, 40000 kPa | 1419.8
333.15 K, 60000 kPa | 1505.1
333.15 K, 80000 kPa | 1581.5
333.15 K, 100000 kPa | 1651.1
343.15 K, 100 kPa | 1173.2
343.15 K, 2500 kPa | 1188.9
343.15 K, 5000 kPa | 1204.9
343.15 K, 10000 kPa | 1235.4
343.15 K, 15000 kPa | 1264.4
343.15 K, 20000 kPa | 1292.1
343.15 K, 30000 kPa | 1343.9
343.15 K, 40000 kPa | 1392
343.15 K, 60000 kPa | 1479.1
343.15 K, 80000 kPa | 1556.9
343.15 K, 100000 kPa | 1627.7
353.15 K, 100 kPa | 1139.5
353.15 K, 2500 kPa | 1155.8
353.15 K, 5000 kPa | 1172.3
353.15 K, 10000 kPa | 1204
353.15 K, 15000 kPa | 1233.9
353.15 K, 20000 kPa | 1262.4
353.15 K, 30000 kPa | 1315.7
353.15 K, 40000 kPa | 1364.9
353.15 K, 60000 kPa | 1453.9
353.15 K, 80000 kPa | 1533.1
353.15 K, 100000 kPa | 1605
363.15 K, 100 kPa | 1106.4
363.15 K, 2500 kPa | 1123.3
363.15 K, 5000 kPa | 1140.5
363.15 K, 10000 kPa | 1173.2
363.15 K, 15000 kPa | 1204.1
363.15 K, 20000 kPa | 1233.5
363.15 K, 30000 kPa | 1288.2
363.15 K, 40000 kPa | 1338.6
363.15 K, 60000 kPa | 1429.4
363.15 K, 80000 kPa | 1510
363.15 K, 100000 kPa | 1583
373.15 K, 100 kPa | 1073.8
373.15 K, 2500 kPa | 1091.4
373.15 K, 5000 kPa | 1109.2
373.15 K, 10000 kPa | 1143.1
373.15 K, 15000 kPa | 1175
373.15 K, 20000 kPa | 1205.2
373.15 K, 30000 kPa | 1261.4
373.15 K, 40000 kPa | 1313
373.15 K, 60000 kPa | 1405.5
373.15 K, 80000 kPa | 1487.6
373.15 K, 100000 kPa | 1561.6
383.15 K, 100 kPa | 1041.7
383.15 K, 2500 kPa | 1060.1
383.15 K, 5000 kPa | 1078.6
383.15 K, 10000 kPa | 1113.6
383.15 K, 15000 kPa | 1146.5
383.15 K, 20000 kPa | 1177.7
383.15 K, 30000 kPa | 1235.3
383.15 K, 40000 kPa | 1288.1
383.15 K, 60000 kPa | 1382.4
383.15 K, 80000 kPa | 1465.8
383.15 K, 100000 kPa | 1540.9
393.15 K, 100 kPa | 1010.2
393.15 K, 2500 kPa | 1029.3
393.15 K, 5000 kPa | 1048.5
393.15 K, 10000 kPa | 1084.8
393.15 K, 15000 kPa | 1118.8
393.15 K, 20000 kPa | 1150.8
393.15 K, 30000 kPa | 1209.9
393.15 K, 40000 kPa | 1263.8
393.15 K, 60000 kPa | 1360
393.15 K, 80000 kPa | 1444.6
393.15 K, 100000 kPa | 1520.8
403.15 K, 100 kPa | 979.2
403.15 K, 2500 kPa | 999.1
403.15 K, 5000 kPa | 1019
403.15 K, 10000 kPa | 1056.6
403.15 K, 15000 kPa | 1091.6
403.15 K, 20000 kPa | 1124.6
403.15 K, 30000 kPa | 1185.2
403.15 K, 40000 kPa | 1240.3
403.15 K, 60000 kPa | 1338.2
403.15 K, 80000 kPa | 1424.1
403.15 K, 100000 kPa | 1501.3
413.15 K, 100 kPa | 948.7
413.15 K, 2500 kPa | 969.4
413.15 K, 5000 kPa | 990.1
413.15 K, 10000 kPa | 1029
413.15 K, 15000 kPa | 1065.2
413.15 K, 20000 kPa | 1099
413.15 K, 30000 kPa | 1161.2
413.15 K, 40000 kPa | 1217.4
413.15 K, 60000 kPa | 1317
413.15 K, 80000 kPa | 1404.2
413.15 K, 100000 kPa | 1482.4
423.15 K, 100 kPa | 918.8
423.15 K, 2500 kPa | 940.3
423.15 K, 5000 kPa | 961.8
423.15 K, 10000 kPa | 1002
423.15 K, 15000 kPa | 1039.3
423.15 K, 20000 kPa | 1074.1
423.15 K, 30000 kPa | 1137.8
423.15 K, 40000 kPa | 1195.2
423.15 K, 60000 kPa | 1296.5
423.15 K, 80000 kPa | 1384.9
423.15 K, 100000 kPa | 1464
433.15 K, 100 kPa | 889.2
433.15 K, 2500 kPa | 911.7
433.15 K, 5000 kPa | 934
433.15 K, 10000 kPa | 975.7
433.15 K, 15000 kPa | 1014.1
433.15 K, 20000 kPa | 1049.8
433.15 K, 30000 kPa | 1115
433.15 K, 40000 kPa | 1173.6
433.15 K, 60000 kPa | 1276.6
433.15 K, 80000 kPa | 1366.2
433.15 K, 100000 kPa | 1446.2
